The record followed here is patent publication US6713265B1 (Synaptic Pharmaceutical Corporation, priority 1999, dated 2004).

Read-outs that look alike come from different tables or passages of the source.

For test [1], the target named is T1, rat Y2 receptor (Rattus norvegicus, UniProt Q9ERC0). Kind of test: Antagonism of NPY- or PP-induced activation of rat Y2 receptors. Type of test: cell-based. The note with it: concentrations up to 1 μM.
For the next test, the target named is T2, rat Y4 receptor (Rattus norvegicus, UniProt Q63447).
T2 construct: expressed in transfected cells; host or cells: COS-7 (transient)
Kind of test: ^125I-PYY binding to membranes, cloned rat Y4 receptor. The note with it: BIBP 3226 at cloned rat Y-type receptors.

Test [2] relates to human Y5 receptor. Kind of test: Radioligand binding to membranes of cells expressing cloned human Y5 receptor. Particulars: BIBP 3226 at cloned human Y-type receptors.
Test [3] has as its system rat Y5 receptor. Kind of test: Radioimmunoassay of cAMP, 293 cells stably expressing rat Y5 receptor. The class given is cell-based. Particulars: concentrations up to 1 μM.
Test [4] concerns the target T3, rat Y5 receptor (Rattus norvegicus, UniProt Q63634).
T3 construct: expressed in transfected cells; host or cells: COS-7 (transient, DEAE-dextran)
Description: Radioligand binding to membranes of cells expressing cloned rat Y5 receptor. Particulars: BIBP 3226 at cloned rat Y-type receptors.

For the next test, the system named is canine Y5 receptor. Kind of test: Porcine ^125I-PYY binding to membranes of COS-7 cells transfected with canine Y5 receptor. Particulars: COS-7 transient.
Another test deals with T4, human Y2 receptor (Homo sapiens, UniProt P49146).
T4 construct: expressed in transfected cells; host or cells: COS-7 (transient)
T4 sequence (P49146 1-381): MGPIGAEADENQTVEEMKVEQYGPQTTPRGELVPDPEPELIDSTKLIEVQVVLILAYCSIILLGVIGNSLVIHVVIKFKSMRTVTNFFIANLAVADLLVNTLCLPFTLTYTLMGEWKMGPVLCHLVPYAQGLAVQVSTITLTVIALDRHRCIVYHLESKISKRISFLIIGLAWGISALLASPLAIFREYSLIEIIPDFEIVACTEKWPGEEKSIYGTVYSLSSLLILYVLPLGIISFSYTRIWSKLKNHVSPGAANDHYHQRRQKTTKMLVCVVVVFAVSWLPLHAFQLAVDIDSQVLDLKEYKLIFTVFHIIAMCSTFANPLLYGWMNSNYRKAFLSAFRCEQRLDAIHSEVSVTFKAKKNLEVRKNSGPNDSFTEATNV
Description: ^125I-PYY binding to membranes, cloned human Y2 receptor.

Test [5] has as its target T1, rat Y2 receptor. Description: ^125I-PYY binding to membranes, cloned rat Y2 receptor. The note with it: BIBP 3226 at cloned rat Y-type receptors. More on the design: expressed in transfected cells; host or cells: COS-7 (transient).
Another test concerns the target T5, human Y4 receptor (Homo sapiens, UniProt P50391).
T5 construct: expressed in transfected cells; host or cells: COS-7 (transient)
Kind of test: ^125I-PYY binding to membranes, cloned human Y4 receptor.

A further test concerns the target 5HT1E (Homo sapiens, UniProt P28566). Description: Binding at cloned human 5HT1E receptor. Particulars: read-out: pKi 5HT1E (converted). From the text: (§1) The cell line for the 5HT1Dα receptor, designated as Ltk-8-30-84, was deposited on Apr. 17, 1990, and accorded ATCC Accession No. CRL 10421. The cell for the 5HT1Dβ receptor, designated as Ltk-11, was deposited on Apr. 17, 1990, and accorded ATCC Accession No. CRL 10422. The cell line for the 5HT1E receptor, designated 5 HT1E-7, was deposited on Nov. 6, 1991, and accorded ATCC Accession No. CRL 10913. The cell line for the ^5HT1F receptor, designated L-5-HT1F, was deposited on Dec. 27, 1991, and accorded ATCC Accession No. ATCC 10957. Membrane preparations comprising these receptors were prepared as described below, and suspended in 50 mM Tris-HCl buffer (pH 7.4 at 37° C.) containing 10 mM MgCl2, 0.2 mM EDTA, 10 μM pargyline, and 0.1% ascorbate. The binding of compounds was determined in competition binding assays by incubation for 30 minutes at 37° C. in the presence of 5 nM [^3H]serotonin.

The target in a further test is T6, 5HT1F (Homo sapiens, UniProt P30939).
T6 construct: expressed in transfected cells; host or cells: LM(tk-), line L-5-HT1F (ATCC 10957)
Description: Binding at cloned human 5HT1F receptor. The note with it: read-out: pKi 5HT1F (converted).
From the text: as §1

For another test, the system named is food intake. Description: Food intake in food-deprived rats. The class given is in vivo, rat. Particulars: Rattus norvegicus, ip, 2 h; 30 mg/kg i.p., after 24h food deprivation, two hours; read-out: Two-hour food intake of food-deprived rats, percentage of intake compared to control rats, Mean.
The target in test [6] is T7, human Y5 receptor (Homo sapiens, UniProt Q15761).
T7 sequence (Q15761 1-445): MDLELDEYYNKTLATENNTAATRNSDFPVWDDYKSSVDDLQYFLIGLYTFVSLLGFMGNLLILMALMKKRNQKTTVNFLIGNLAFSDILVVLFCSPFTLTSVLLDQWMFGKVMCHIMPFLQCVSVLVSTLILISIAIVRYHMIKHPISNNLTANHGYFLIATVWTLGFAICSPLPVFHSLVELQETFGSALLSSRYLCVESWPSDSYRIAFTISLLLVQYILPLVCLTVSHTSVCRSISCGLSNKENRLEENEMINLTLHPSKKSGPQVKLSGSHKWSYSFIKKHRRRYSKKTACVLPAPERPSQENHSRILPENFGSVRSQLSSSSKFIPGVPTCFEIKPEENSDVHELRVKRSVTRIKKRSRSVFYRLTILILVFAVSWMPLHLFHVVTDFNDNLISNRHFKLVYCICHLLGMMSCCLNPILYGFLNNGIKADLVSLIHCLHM
Kind of test: Radioligand binding to membranes of cells expressing cloned human Y5 receptor. More on the design: Ki Values, Human Y5; apparent Kd; pKd; Ki Values, Human Y5 (LM(tk-; The isolated clone (CG-19) turned out to contain a full length cDNA; The longest open reading frame encodes a 455 amino acid protein. Particulars: Table 14; stably transfected LM(tk-) cells.

In another test the target is T8, human Y1 receptor (Homo sapiens, UniProt P25929).
T8 construct: expressed in transfected cells; host or cells: COS-7 (transient)
T8 sequence (P25929 1-384): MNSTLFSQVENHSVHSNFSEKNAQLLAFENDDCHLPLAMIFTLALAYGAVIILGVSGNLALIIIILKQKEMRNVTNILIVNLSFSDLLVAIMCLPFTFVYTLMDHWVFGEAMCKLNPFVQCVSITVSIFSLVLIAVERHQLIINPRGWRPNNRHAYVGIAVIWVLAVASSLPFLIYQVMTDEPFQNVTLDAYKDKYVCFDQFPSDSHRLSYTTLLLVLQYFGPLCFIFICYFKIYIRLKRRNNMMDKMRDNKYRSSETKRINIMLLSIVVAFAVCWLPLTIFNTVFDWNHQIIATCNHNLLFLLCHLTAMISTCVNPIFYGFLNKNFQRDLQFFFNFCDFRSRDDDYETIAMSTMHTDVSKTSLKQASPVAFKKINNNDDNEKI
Description: ^125I-PYY binding to membranes, cloned human Y1 receptor.

For test [7], the target named is T7, human Y5 receptor. Kind of test: Radioimmunoassay of cAMP, cells stably expressing human Y5 receptor. Type of test: cell-based. More on the design: Ki Values, Human Y5; apparent Kd; pKd; Ki Values, Human Y5 (LM(tk-; The isolated clone (CG-19) turned out to contain a full length cDNA; The longest open reading frame encodes a 455 amino acid protein. The note with it: block of NPY-induced inhibition of cAMP accumulation.
Description: LM(tk-) cells stably transfected with the human Y5 receptor were routinely converted from an adherent monolayer to a viable suspension. […] The cell suspension was maintained in a shaking incubator at 37° C., 5% CO2 for 24 hours. […] Alternatively, cells may be returned to adherent cell culture in complete DMEM by distribution into 96-well microtiter plates coated with poly-D-lysine (0.01 mg/ml) followed by incubation at 37° C., 5% CO2 for 24 hours.
The maximum inhibition of cAMP accumulation (Emax) and the concentration producing a half-maximal effect (EC50) were determined by nonlinear regression analysis according to a 4 parameter logistic equation.
The ability of the compounds to antagonize the Y-type receptors is reported as the Kb. […] The results shown are representative of at least three independent experiments.

T5 sequence (P50391 whole entry): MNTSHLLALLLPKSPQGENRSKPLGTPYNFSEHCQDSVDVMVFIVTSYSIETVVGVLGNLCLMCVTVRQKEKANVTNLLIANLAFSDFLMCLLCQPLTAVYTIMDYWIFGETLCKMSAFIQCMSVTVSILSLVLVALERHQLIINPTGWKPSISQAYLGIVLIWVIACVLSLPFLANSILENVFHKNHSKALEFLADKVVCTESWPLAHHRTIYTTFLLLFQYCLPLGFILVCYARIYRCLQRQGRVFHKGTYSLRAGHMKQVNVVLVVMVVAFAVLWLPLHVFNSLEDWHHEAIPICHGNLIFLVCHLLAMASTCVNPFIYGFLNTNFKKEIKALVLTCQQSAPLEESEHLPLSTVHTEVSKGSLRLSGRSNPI
T1 sequence (Q9ERC0 1-381): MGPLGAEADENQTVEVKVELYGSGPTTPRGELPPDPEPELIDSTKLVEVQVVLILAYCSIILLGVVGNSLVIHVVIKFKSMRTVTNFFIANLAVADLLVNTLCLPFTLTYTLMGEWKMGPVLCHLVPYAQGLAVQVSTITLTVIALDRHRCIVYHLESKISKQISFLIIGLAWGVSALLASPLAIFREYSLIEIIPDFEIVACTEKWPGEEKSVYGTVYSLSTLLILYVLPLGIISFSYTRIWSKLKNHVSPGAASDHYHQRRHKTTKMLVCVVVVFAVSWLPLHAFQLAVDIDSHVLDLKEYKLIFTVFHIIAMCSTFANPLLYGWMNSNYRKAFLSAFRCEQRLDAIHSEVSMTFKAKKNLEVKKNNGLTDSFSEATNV
T2 sequence (Q63447 whole entry): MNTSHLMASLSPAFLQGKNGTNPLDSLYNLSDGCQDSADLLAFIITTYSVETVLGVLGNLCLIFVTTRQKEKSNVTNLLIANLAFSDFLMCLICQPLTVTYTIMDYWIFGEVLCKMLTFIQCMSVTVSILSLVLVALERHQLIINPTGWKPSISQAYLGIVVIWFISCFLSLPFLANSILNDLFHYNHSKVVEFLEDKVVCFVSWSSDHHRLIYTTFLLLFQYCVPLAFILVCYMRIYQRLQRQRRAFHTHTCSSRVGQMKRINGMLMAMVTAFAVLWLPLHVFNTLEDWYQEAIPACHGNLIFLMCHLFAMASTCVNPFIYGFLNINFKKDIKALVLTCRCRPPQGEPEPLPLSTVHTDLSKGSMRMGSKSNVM
Chain of 5HT1E (P28566 whole entry): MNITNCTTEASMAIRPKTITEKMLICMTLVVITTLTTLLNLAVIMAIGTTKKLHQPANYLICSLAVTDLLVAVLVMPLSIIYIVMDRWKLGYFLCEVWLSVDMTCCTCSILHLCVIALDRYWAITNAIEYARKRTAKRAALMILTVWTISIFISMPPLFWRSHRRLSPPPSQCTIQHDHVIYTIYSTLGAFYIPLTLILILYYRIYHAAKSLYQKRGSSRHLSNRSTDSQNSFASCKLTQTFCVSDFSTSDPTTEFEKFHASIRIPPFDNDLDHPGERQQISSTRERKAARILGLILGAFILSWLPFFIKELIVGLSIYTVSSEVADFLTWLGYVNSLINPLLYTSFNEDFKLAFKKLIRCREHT
T6 sequence (P30939 whole entry): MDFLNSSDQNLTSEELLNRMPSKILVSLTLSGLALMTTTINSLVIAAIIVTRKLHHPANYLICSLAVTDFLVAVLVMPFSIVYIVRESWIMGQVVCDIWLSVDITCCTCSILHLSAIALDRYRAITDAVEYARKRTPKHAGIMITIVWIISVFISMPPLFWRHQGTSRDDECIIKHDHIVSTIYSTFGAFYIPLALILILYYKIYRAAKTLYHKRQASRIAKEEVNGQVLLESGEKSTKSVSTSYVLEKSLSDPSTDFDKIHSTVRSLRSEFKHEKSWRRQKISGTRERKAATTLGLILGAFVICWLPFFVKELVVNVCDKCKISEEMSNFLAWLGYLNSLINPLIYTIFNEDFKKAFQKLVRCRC
T3 sequence (Q63634 whole entry): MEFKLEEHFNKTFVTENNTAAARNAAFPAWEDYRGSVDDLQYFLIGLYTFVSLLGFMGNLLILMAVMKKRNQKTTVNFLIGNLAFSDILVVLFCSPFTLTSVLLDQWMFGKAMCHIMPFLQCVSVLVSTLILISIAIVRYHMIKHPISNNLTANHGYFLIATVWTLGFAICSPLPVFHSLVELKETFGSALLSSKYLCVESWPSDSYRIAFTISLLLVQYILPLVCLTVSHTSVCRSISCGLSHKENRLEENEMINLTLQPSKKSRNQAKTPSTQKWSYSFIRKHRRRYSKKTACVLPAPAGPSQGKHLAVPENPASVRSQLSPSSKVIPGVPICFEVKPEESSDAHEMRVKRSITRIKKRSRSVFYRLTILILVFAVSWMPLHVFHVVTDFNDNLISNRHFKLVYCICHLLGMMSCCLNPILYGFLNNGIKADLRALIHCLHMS
Description for food intake: After receipt, the animals are individually housed for the duration of the study and allowed free access to normal food together with tap water. The animals are maintained in a room with a 12 h light/dark cycle (8:00 a.m. to 8:00 p.m. light) at 24° C. and monitored humidity. After placement into individual cages the rats undergo a 4 day equilibration period, during which they are habituated to their new environment and to eating a powdered or pellet diet NAFAG, Gossau, Switzerland).
At the end of the equilibration period, food is removed from the animals for 24 hours starting at 8:00 a.m. At the end of the fasting period compound or vehicle may be administered to the animals orally or by injection intraperitoneally or intravenously. After 10-60 min. food is returned to the animals and their food intake is monitored at various time periods during the following 24 hour period. The food intake of animals treated with test compound may be calculated as a percentage of the food intake of control animals (i.e., animals treated with vehicle). Alternatively, food intake for each group of animals subjected to a particular experimental condition may be expressed as the mean±S.E.M.
Measurements were performed two hours after administration of the test compound.

On to `NC(N)=NCCC[C@@H](NC(=O)C(c1ccccc1)c1ccccc1)C(=O)NCc1ccc(O)cc1` [BIBP 3226], for which the “antagonism of NPY- or PP-induced activation of rat Y2 receptors” value at rat Y2 receptor [1] is on record as “no evidence for antagonism”. Also, the Ki on rat Y4 receptor was 0.42 µM; with human Y5 receptor [2], 49 µM; at rat Y5 receptor [4], 25 µM; in the test on canine Y5 receptor, 17 µM; at human Y2 receptor (BIBP 3226 at cloned human Y-type receptors, read-out: Ki, human Y2 receptor), 6.9 µM; on rat Y2 receptor [5], 66 µM. The Ki on human Y4 receptor (BIBP 3226 at cloned human Y-type receptors, read-out: Ki, human Y4 receptor) is 8 µM. Moreover, the “antagonism of NPY- or PP-induced activation of rat Y5 receptors” value in the test on rat Y5 receptor [3] is listed as “no evidence for antagonism”.
Turning to `O=S(=O)(NC[C@H]1CC[C@H](CNC(CO)Cc2ccc(Cl)cc2)CC1)c1cccc2ccccc12` (stereo partly drawn) [Compound 25, Naphthalene-1-sulfonic Acid trans-(4-{[2-(4-Chlorophenyl)-1-hydroxymethyl-ethylamino]-methyl}-cyclohexylmethyl)-amide], the Ki on 5HT1E was no less than 5.01 µM; at 5HT1F it was no less than 5.01 µM; at human Y2 receptor (read-out: Binding Affinity Ki vs. ^125I-PYY, Human Receptor Y2, Table 14, stably transfected 293 cells (compound 1 also COS-7)), 0.851 µM; on human Y4 receptor (read-out: Binding Affinity Ki vs. ^125I-PYY, Human Receptor Y4, Table 14, stably transfected LM(tk-) cells), 13.1 µM. The response vs control in vivo at 30 mg/kg with food intake was 32%.
Regarding `NCC(Cc1ccccc1)Nc1cccc2ccccc12` (stereo not shown) [Compound 28], the Ki at human Y5 receptor [6] was 19 µM; on human Y1 receptor, greater than 100 µM; on human Y2 receptor, greater than 75 µM; at human Y4 receptor (Table 14, stably transfected LM(tk-) cells) it was greater than 100 µM. The “Y5 receptor antagonist activity” value at human Y5 receptor [7] is given as “Y5 receptor antagonist”.
